From patent US20190048052A1, “ANTI-MICROBIAL PEPTIDES AND COATINGS” (Board of Regents of the University of Nebraska, priority 2016, published 2019)
Converted amounts (≈) assume the structure as drawn. Read-outs that look alike come from different tables or passages of the source. Residues, ends and D or L forms follow the SMILES beside them.

Key:
S. aureus USA300 [1] = assay: Propidium iodide membrane permeation; assay type: cell-based, Staphylococcus aureus
Method: Fluorescence spectroscopy was also used to follow bacterial killing. In brief, a serially diluted 10× peptide (10 μL) was made in 96-well coming COSTAR microtiter plates. Propidium iodide (2 μL) was added at 50 μM to each well which was finally incubated with S. aureus USA300 bacteria (88 μL at a final OD600 ˜0.1) with continuous shaking at 100 rpm, 37° C. in a FLUOstar® Omega (BMG LABTECH Inc, NC) microplate reader. The plates were read every 5 minutes for a total duration of 2 hours with excitation and emission wavelengths at 584 nm and 620 nm respectively. Plots were made using averaged readings from duplicated experiments after subtraction of the media control.

S. aureus USA300 [2] = assay type: cell-based, Staphylococcus aureus
Method: Two types of experiments were conducted to evaluate the anti-biofilm activity of these peptides against S. aureus USA300 grown under a static condition for 24 hours to form established biofilms in presence of tryptic soy broth (TSB). The experiment was set up using a flat bottom, 96-well, polystyrene microtiter plates (Corning, COSTAR). In short, S. aureus USA300 (10^5 CFU/mL) in fresh TSB media was made from an exponentially growing culture. 200 μL of this bacterial culture was added to each well of the microtiter plates. The plates are then incubated at 37° C. for 24 hours to allow biofilm formation. Media was then carefully removed followed by washing with sterile 1×PBS to remove any unattached bacteria. Solution containing μL of 10× peptide solution and 180 μL of fresh TSB were added. The plates were again incubated at 37° C. for another 24 hours. To measure the extent of biofilm disruption by the peptides as a function of biofilm reduction, crystal violet staining was performed. Media was pipetted out and the wells were carefully washed with 200 μL of PBS to remove the loosely attached cells. Subsequently, 200 μL of 99% methanol was added for fixation and the plates were allowed to sit for 15 minutes. The plates were finally aspirated and dried. Lastly, staining was done with 200 μL of 1% crystal violet in water for 5 minutes. Excess stain was gently rinsed off with tap water, and plates were air-dried. Further, stains were solubilized in 200 μL of 33% glacial acetic acid followed by colorimetric measurement at 600 nm on a Chromate® microtiter plate reader. The amounts of biofilm growth with and without compound treatments were calculated.
In addition, live cell contents of the peptide acted biofilms was estimated by XTT [2,3-bis(2-methyloxy-4-nitro-5-sulfophenyl)-2H-tertazolium-5-carboxanilide]assay by following the manufacturer's instructions with modifications. A 10% XTT solution in TSB media was added to each well and the plates were again incubated for 2 hours at 37° C. Absorbance at 450 nm (only media with XTT containing wells served as the blank) was obtained using Chromate® microtiter plate reader. Percentage of biofilm reduction for the peptide was plotted assuming 100% biofilm growth is achieved on the bacterial wells without peptide treatment.

S. aureus USA300 [3] = assay type: cell-based, Staphylococcus aureus; conditions: for loss in activity compared to the WT: MRSA USA300
Method: (§1) The antimicrobial activity of peptides was evaluated using a standard broth microdilution protocol. In brief, exponential phase bacteria at 10^6 CFU were incubated with serially diluted peptides overnight for ˜20 hours at 37° C. The plates were read on a ChroMate® 4300 Microplate Reader at 630 nm (GMI, Ramsey, Minn.).

human red blood cells = assay: Hemolytic ability (Example 3); assay type: cell-based; conditions: concentration that causes 50% hemolysis
Method: Hemolytic analysis of selected peptides was performed using an established protocol. Briefly, human blood cells (UNMC Blood Bank) were washed three times with phosphate buffer saline (PBS) and diluted to a 2% solution. After peptide treatment, incubation at 37° C. for one hour, and centrifugation at 13,000 rpm, aliquots of the supernatant were transferred to a fresh 96-well microplate. To assess peptide cytotoxicity, the amount of hemoglobin released was measured at 545 nm. The percent lysis was calculated by assuming 100% release when human blood cells were treated with 1% TRITON™ X-100, and 0% release when incubated with PBS buffer.

E. coli ATCC 25922 = assay type: cell-based, Escherichia coli; conditions: ATCC 25922, 20 h
Method: as §1

S. aureus USA300 [4] = assay type: cell-based, Staphylococcus aureus; conditions: USA300
Method: The minimal bactericidal concentration (MBC) was determined by plating 50 μl of the content in the clear wells of the above MIC assays. MBC was determined on the petri dishes without bacterial colony formation after overnight growth (Wang et al. (2012) Biochemistry 51:653-664).

S. epidermidis 1457 = assay type: cell-based, Staphylococcus epidermidis
Method: (§2) The bacterial strains used here included Gram-positive bacteria Staphylococcus aureus USA300 LAC, Staphylococcus epidermidis 1457, Bacillus subtilis 168, and Gram-negative Escherichia coli K12. Clinical strains of S. aureus, including Mu50, UAMS-1 and Newman, were also evaluated.
(§3) The antimicrobial activity of peptides was evaluated using a standard broth microdilution protocol (Wang, G. (2008) J. Biol. Chem., 283:32637-32643). In brief, exponential phase bacteria at 10^6 CFU were incubated with serially diluted peptides overnight for ˜20 hours at 37° C. The plates were read on a ChroMate® 4300 Microplate Reader at 630 nm (GMI, Ramsey, Minn.). […] In addition, the effects of human serum (up to 10%), pH (6.8, 7.4 and 8.0) and 150 mM sodium chloride (NaCl) on MICs against S. aureus USA300 were also evaluated (Mishra et al. (2015) RSC Advances 5:59758-59769).

B. subtilis 168 = assay type: cell-based, Bacillus subtilis
Method: as §2, §3

S. aureus USA300 [5] = assay type: cell-based, Staphylococcus aureus; remark: listed apart in the source
Method: as §2, §3

E. coli K12 = assay type: cell-based, Escherichia coli; conditions: K12
Method: as §2, §3

Structure (SMILES) | HL50 (human red blood cells) | E. coli (MIC) (E. coli ATCC 25922) | loss in activity compared to the WT (S. aureus USA300 [3]) | S. aureus (MIC) (S. aureus USA300 [3]; S. aureus USA300) | further results
CCCCCCCCCC(=O)N[C@@H](Cc1c[nH]c2ccccc12)C(=O)N[C@H](CC(N)=O)C(=O)N[C@@H](CC(=O)O)C(=O)N[C@@H]1C(=O)NCC(=O)N[C@@H](CCCN)C(=O)N[C@@H](CC(=O)O)C(=O)N[C@H](C)C(=O)N[C@@H](CC(=O)O)C(=O)NCC(=O)N[C@H](CO)C(=O)N[C@@H]([C@H](C)CC(=O)O)C(=O)N[C@@H](CC(=O)c2ccccc2N)C(=O)O[C@@H]1C [daptomycin, reference compound] | – | – | – | – | propidium iodide fluorescence change after treatment (S. aureus USA300 [1]): rapid increase in fluorescence
CC[C@H](C)[C@H](NC(=O)[C@H](CCCNC(=N)N)NC(=O)[C@H](CCCNC(=N)N)NC(=O)[C@H](CC(C)C)NC(=O)[C@H](Cc1c[nH]c2ccccc12)NC(=O)[C@H](CCCNC(=N)N)NC(=O)[C@@H](N)Cc1c[nH]c2ccccc12)C(=O)N[C@@H](Cc1c[nH]c2ccccc12)C(N)=O [Peptide W2R, WRWLRRIW] (H-WRWLRRIW-NH2; N-terminus assumed) | 100 µM | 25 µM | – | – | killing in preformed biofilms (XTT) (S. aureus USA300 [2]; 12.5 μM): 80%; S. aureus (MIC) (S. aureus USA300 [3]; USA300, 20 h): 6.2 µM
CC[C@H](C)[C@H](NC(=O)[C@H](CCCNC(=N)N)NC(=O)[C@H](CO)NC(=O)[C@H](CC(C)C)NC(=O)[C@H](Cc1c[nH]c2ccccc12)NC(=O)[C@H](Cc1c[nH]c2ccccc12)NC(=O)[C@@H](N)Cc1c[nH]c2ccccc12)C(=O)N[C@@H](Cc1c[nH]c2ccccc12)C(N)=O [TetraF2W, WWWLSRIW] (H-WWWLSRIW-NH2; N-terminus and C-terminus assumed) | – | – | – | – | MBC S. aureus USA300 (S. aureus USA300 [4]): 6.2 µM (≈ 7.64 µg/mL); MIC S. epidermidis 1457 (S. epidermidis 1457): >50 µM; MIC B. subtilis 168 (B. subtilis 168): 6.2 µM (≈ 7.64 µg/mL); fold more potent than temporin-SHf (anti-MRSA) (S. aureus USA300 [5]; S. aureus USA300): 4-8 fold; MIC S. aureus USA300 (S. aureus USA300 [5]; USA300): 3.1 to 6.2 µM; MIC E. coli K12 (E. coli K12): >100 µM
CC[C@H](C)[C@H](NC(=O)[C@H](CCCNC(=N)N)NC(=O)[C@H](CCCNC(=N)N)NC(=O)[C@H](CC(C)C)NC(=O)[C@H](Cc1c[nH]c2ccccc12)NC(=O)[C@H](Cc1c[nH]c2ccccc12)NC(=O)[C@@H](N)Cc1c[nH]c2ccccc12)C(=O)N[C@@H](CCCNC(=N)N)C(N)=O [Peptide W8R, WWWLRRIR] (H-WWWLRRIR-NH2; N-terminus assumed) | >200 µM | 25 µM | four-fold | 12.5 µM | killing in preformed biofilms (XTT) (S. aureus USA300 [2]; 12.5 μM): 20%
CN[C@H](CC(C)C)C(=O)N[C@H]1C(=O)N[C@@H](CC(N)=O)C(=O)N[C@H]2C(=O)N[C@H]3C(=O)N[C@H](C(=O)N[C@H](C(=O)O)c4cc(O)cc(O)c4-c4cc3ccc4O)[C@H](O)c3ccc(c(Cl)c3)Oc3cc2cc(c3O[C@@H]2O[C@H](CO)[C@@H](O)[C@H](O)[C@H]2O[C@H]2C[C@](C)(N)[C@H](O)[C@H](C)O2)Oc2ccc(cc2Cl)[C@H]1O [vancomycin, reference compound] | – | – | – | – | propidium iodide fluorescence change after treatment (S. aureus USA300 [1]): no increase in fluorescence
CC[C@H](C)[C@H](NC(=O)[C@H](CCCNC(=N)N)NC(=O)[C@H](CCCNC(=N)N)NC(=O)[C@H](CC(C)C)NC(=O)[C@H](CCCNC(=N)N)NC(=O)[C@H](Cc1c[nH]c2ccccc12)NC(=O)[C@@H](N)Cc1c[nH]c2ccccc12)C(=O)N[C@@H](Cc1c[nH]c2ccccc12)C(N)=O [Peptide W3R, WWRLRRIW] (H-WWRLRRIW-NH2; N-terminus assumed) | >200 µM | 25 µM | four-fold | 12.5 µM | killing in preformed biofilms (XTT) (S. aureus USA300 [2]; 25 μM): neither W1R nor W3R was able to kill
CC[C@H](C)[C@H](NC(=O)[C@H](CCCNC(=N)N)NC(=O)[C@H](CCCNC(=N)N)NC(=O)[C@H](CC(C)C)NC(=O)[C@H](Cc1c[nH]c2ccccc12)NC(=O)[C@H](Cc1c[nH]c2ccccc12)NC(=O)[C@@H](N)CCCNC(=N)N)C(=O)N[C@@H](Cc1c[nH]c2ccccc12)C(N)=O [Peptide W1R, RWWLRRIW] (H-RWWLRRIW-NH2; N-terminus assumed) | >200 µM | 25 µM | four-fold | 12.5 µM | killing in preformed biofilms (XTT) (S. aureus USA300 [2]; 25 μM): neither W1R nor W3R was able to kill
